Source: ChEMBL document CHEMBL5113438, “Discovery of highly potent and selective CRBN-recruiting EGFRL858R/T790M degraders in vivo” (Eur J Med Chem, 2022)

Columns and labels:
[1] = target: von Hippel-Lindau disease tumor suppressor/Epidermal growth factor receptor (Homo sapiens, UniProt P00533+P40337, L858R/T790M); experiment: Protac activity at VHL/EGFR L858R/T790M mutant in human NCI-H1975 cells assessed as induction of degradation of EGFR incubated for 24 hrs in presence of afatinib by immunoblot analysis; format: cell-based
von Hippel-Lindau disease tumor suppressor/Epidermal growth factor receptor, sequence (P00533 25-1210 T790M/L858R limits assumed, stated change not applied): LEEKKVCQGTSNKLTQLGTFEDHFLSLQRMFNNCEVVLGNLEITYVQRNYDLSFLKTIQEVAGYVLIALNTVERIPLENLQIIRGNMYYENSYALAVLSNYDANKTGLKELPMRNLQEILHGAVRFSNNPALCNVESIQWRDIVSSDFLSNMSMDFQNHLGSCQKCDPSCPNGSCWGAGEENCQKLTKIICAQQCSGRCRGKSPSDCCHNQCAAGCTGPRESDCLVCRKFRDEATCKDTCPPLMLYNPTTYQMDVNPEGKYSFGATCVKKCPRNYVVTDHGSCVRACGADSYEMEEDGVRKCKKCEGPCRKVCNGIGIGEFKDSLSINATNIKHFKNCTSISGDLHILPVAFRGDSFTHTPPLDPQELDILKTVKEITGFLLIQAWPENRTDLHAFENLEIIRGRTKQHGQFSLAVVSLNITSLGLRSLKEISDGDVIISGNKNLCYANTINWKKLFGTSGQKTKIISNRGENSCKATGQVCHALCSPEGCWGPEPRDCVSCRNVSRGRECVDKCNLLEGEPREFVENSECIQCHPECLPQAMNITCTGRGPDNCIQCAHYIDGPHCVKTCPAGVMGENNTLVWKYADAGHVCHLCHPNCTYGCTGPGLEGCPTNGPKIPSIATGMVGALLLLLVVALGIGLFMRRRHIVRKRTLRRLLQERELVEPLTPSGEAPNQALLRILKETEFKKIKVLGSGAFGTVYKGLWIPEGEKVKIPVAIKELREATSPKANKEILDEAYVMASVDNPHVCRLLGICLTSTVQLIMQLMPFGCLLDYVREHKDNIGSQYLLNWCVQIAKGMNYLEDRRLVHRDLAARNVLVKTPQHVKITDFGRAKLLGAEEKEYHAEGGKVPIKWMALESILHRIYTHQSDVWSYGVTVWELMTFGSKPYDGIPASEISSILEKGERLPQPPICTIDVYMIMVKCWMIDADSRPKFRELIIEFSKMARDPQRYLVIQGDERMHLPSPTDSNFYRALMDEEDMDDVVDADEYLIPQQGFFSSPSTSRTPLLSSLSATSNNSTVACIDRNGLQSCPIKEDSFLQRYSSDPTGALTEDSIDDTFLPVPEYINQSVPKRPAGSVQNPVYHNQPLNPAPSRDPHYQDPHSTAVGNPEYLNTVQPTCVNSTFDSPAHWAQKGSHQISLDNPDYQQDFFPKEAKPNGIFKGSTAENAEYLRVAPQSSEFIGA
von Hippel-Lindau disease tumor suppressor/Epidermal growth factor receptor, sequence (P40337 whole entry, stated change not applied): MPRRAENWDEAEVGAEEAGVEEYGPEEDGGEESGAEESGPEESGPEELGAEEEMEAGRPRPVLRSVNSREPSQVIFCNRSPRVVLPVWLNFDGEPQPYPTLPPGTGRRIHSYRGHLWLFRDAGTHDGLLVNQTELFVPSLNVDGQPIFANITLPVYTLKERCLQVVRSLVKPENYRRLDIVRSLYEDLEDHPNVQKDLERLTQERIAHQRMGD

A549 = experiment: Antiproliferative activity against human A549 cells expressing wild type EGFR incubated for 72 hrs by CCK-8 assay; format: functional, cell-based; settings: A549, 72 h
NCI-H1299 [2] = experiment: Antiproliferative activity against human NCI-H1299 cells expressing wild type EGFR incubated for 72 hrs by CCK-8 assay; format: functional, cell-based; settings: NCI-H1299, 72 h
HCC827 = experiment: Antiproliferative activity against human NCI-HCC827 cells expressing EGFR del19 incubated for 72 hrs by CCK-8 assay; format: functional, cell-based; settings: HCC827, 72 h
NCI-H1975 [3] = experiment: Antiproliferative activity against human NCI-H1975 cells expressing EGFR L858R/T790M incubated for 72 hrs by CCK-8 assay; format: functional, cell-based; settings: NCI-H1975, 72 h
[4] = Selectivity ratio IC50 for human NCI-H1299 cells expressing wild type EGFR to human NCI-H1975 cells expressing EGFR L858R/T790M; format: functional
BaF3 [5] = experiment: Antiproliferative activity against mouse BaF3 harbouring EGFR L858R/T790M mutant assessed as inhibition of cell growth incubated for 72 hrs by MTS assay; format: functional, cell-based; settings: BaF3, 72 h
BaF3 [6] = experiment: Antiproliferative activity against mouse BaF3 harbouring EGFR L858R/T790M/C797S mutant assessed as inhibition of cell growth incubated for 72 hrs by MTS assay; format: functional, cell-based; settings: BaF3, 72 h
BaF3 [7] = experiment: Antiproliferative activity against mouse BaF3 harbouring EGFR L858R/T790M/L718Q mutant assessed as inhibition of cell growth incubated for 72 hrs by MTS assay; format: functional, cell-based; settings: BaF3, 72 h
NCI-H1975 [8] = experiment: Induction of apoptosis in human NCI-H1975 cells assessed as viable cells at 0.1 uM incubated for 48 hrs by AnnexinV-FITC/propidium iodide staining based flow cytometry analysis (reference value: 96.2 % ); format: functional; settings: read-out: Activity
NCI-H1975 [9] = experiment: Induction of apoptosis in human NCI-H1975 cells assessed as viable cells at 1.0 uM incubated for 48 hrs by AnnexinV-FITC/propidium iodide staining based flow cytometry analysis (reference value: 96.2 % ); format: functional; settings: read-out: Activity
NCI-H1975 [10] = experiment: Induction of apoptosis in human NCI-H1975 cells assessed as early apoptotic cells at 0.1 uM incubated for 48 hrs by AnnexinV-FITC/propidium iodide staining based flow cytometry analysis (reference value: 0.11 % ); format: functional
NCI-H1975 [11] = experiment: Induction of apoptosis in human NCI-H1975 cells assessed as early apoptotic cells at 1.0 uM incubated for 48 hrs by AnnexinV-FITC/propidium iodide staining based flow cytometry analysis (reference value: 0.11 % ); format: functional
NCI-H1975 [12] = experiment: Induction of apoptosis in human NCI-H1975 cells assessed as late apoptotic cells at 0.1 uM incubated for 48 hrs by AnnexinV-FITC/propidium iodide staining based flow cytometry analysis (reference value: 1.35 % ); format: functional
NCI-H1975 [13] = experiment: Induction of apoptosis in human NCI-H1975 cells assessed as late apoptotic cells at 1.0 uM incubated for 48 hrs by AnnexinV-FITC/propidium iodide staining based flow cytometry analysis (reference value: 1.35 % ); format: functional
NCI-H1975 [14] = experiment: Induction of apoptosis in human NCI-H1975 cells assessed as necrotic cells at 0.1 uM incubated for 48 hrs by AnnexinV-FITC/propidium iodide staining based flow cytometry analysis (reference value: 3.28 % ); format: functional
NCI-H1975 [15] = experiment: Induction of apoptosis in human NCI-H1975 cells assessed as necrotic cells at 1.0 uM incubated for 48 hrs by AnnexinV-FITC/propidium iodide staining based flow cytometry analysis (reference value: 3.28 % ); format: functional
NCI-H1299 [16] = experiment: Induction of apoptosis in human NCI-H1299 cells assessed as viable cells at 0.1 uM incubated for 48 hrs by AnnexinV-FITC/propidium iodide staining based flow cytometry analysis (reference value: 98.05 % ); format: functional; settings: read-out: Activity
NCI-H1299 [17] = experiment: Induction of apoptosis in human NCI-H1299 cells assessed as viable cells at 1.0 uM incubated for 48 hrs by AnnexinV-FITC/propidium iodide staining based flow cytometry analysis (reference value: 98.05 % ); format: functional; settings: read-out: Activity
NCI-H1299 [18] = experiment: Induction of apoptosis in human NCI-H1299 cells assessed as early apoptotic cells at 0.1 uM incubated for 48 hrs by AnnexinV-FITC/propidium iodide staining based flow cytometry analysis (reference value: 0.11 % ); format: functional
NCI-H1299 [19] = experiment: Induction of apoptosis in human NCI-H1299 cells assessed as early apoptotic cells at 1.0 uM incubated for 48 hrs by AnnexinV-FITC/propidium iodide staining based flow cytometry analysis (reference value: 0.11 % ); format: functional
NCI-H1299 [20] = experiment: Induction of apoptosis in human NCI-H1299 cells assessed as late apoptotic cells at 0.1 uM incubated for 48 hrs by AnnexinV-FITC/propidium iodide staining based flow cytometry analysis (reference value: 1.53 % ); format: functional
NCI-H1299 [21] = experiment: Induction of apoptosis in human NCI-H1299 cells assessed as late apoptotic cells at 1.0 uM incubated for 48 hrs by AnnexinV-FITC/propidium iodide staining based flow cytometry analysis (reference value: 1.53 % ); format: functional
NCI-H1299 [22] = experiment: Induction of apoptosis in human NCI-H1299 cells assessed as necrotic cells at 0.1 uM incubated for 48 hrs by AnnexinV-FITC/propidium iodide staining based flow cytometry analysis (reference value: 0.24 % ); format: functional
NCI-H1299 [23] = experiment: Induction of apoptosis in human NCI-H1299 cells assessed as necrotic cells at 1.0 uM incubated for 48 hrs by AnnexinV-FITC/propidium iodide staining based flow cytometry analysis (reference value: 0.24 % ); format: functional
[24] = Plasma protein binding in rat assessed as unbound fraction at 1 uM incubated for 4 hrs by rapid equilibrium dialysis method; format: ADME, cell-free; settings: read-out: PPB (converted)

Row | IC50 (A549) [µM] | IC50 (NCI-H1299 [2]) [µM] | IC50 (HCC827) [µM] | IC50 (NCI-H1975 [3]) [µM] | SMILES | Ratio IC50 [4] | other results
1 |  |  |  |  | Cc1ccsc1-c1ccc(CNC(=O)[C@@H]2C[C@@H](O)CN2C(=O)[C@@H](NC(=O)CCCCCOCCCCOCCCCOc2cc3ncnc(Nc4ccc(F)c(Cl)c4)c3cc2NC(=O)/C=C/CN(C)C)C(C)(C)C)cc1 |  | EC50 [1]: 0.216 µM
2 | > 100 | > 100 | 0.649 | 3.56 | C#CCN(CCCCCC(=O)Nc1cccc2c1CN(C1CCC(=O)NC1=O)C2=O)CCN(C)c1cc(OC)c(Nc2nccc(-c3cn(C)c4ccccc34)n2)cc1NC(=O)C=C (stereo unspecified) | 28 | 
3 |  |  |  |  | O=C1CCC(N2C(=O)c3cccc(NCCOCCOCCOCCN4CCN(c5ccc(-c6ccc7c(c6)C(=O)N(C(C(=O)Nc6nccs6)c6ccccc6)C7)cn5)CC4)c3C2=O)C(=O)N1 (stereo unspecified) |  | IC50 (BaF3 [5]): 0.05 µM; IC50 (BaF3 [6]): 0.041 µM; IC50 (BaF3 [7]): 0.028 µM
4 | > 100 | > 100 | 1.16 | 3.23 | C#CCN(CCCCCCCCC(=O)Nc1cccc2c1CN(C1CCC(=O)NC1=O)C2=O)CCN(C)c1cc(OC)c(Nc2nccc(-c3cn(C)c4ccccc34)n2)cc1NC(=O)C=C (stereo unspecified) | 31 | 
5 | > 100 | > 100 | 0.358 | 1.11 | C#CCN(CCCCCCC(=O)Nc1cccc2c1CN(C1CCC(=O)NC1=O)C2=O)CCN(C)c1cc(OC)c(Nc2nccc(-c3cn(C)c4ccccc34)n2)cc1NC(=O)C=C (stereo unspecified) | 90 | 
6 | > 100 | > 100 | 2.65 | 6.8 | C#CCN(CCCCCCCCCC(=O)Nc1cccc2c1CN(C1CCC(=O)NC1=O)C2=O)CCN(C)c1cc(OC)c(Nc2nccc(-c3cn(C)c4ccccc34)n2)cc1NC(=O)C=C (stereo unspecified) | 14 | 
7 | > 100 | > 100 | 0.457 | 1.36 | C#CCN(CCCCCCCC(=O)Nc1cccc2c1CN(C1CCC(=O)NC1=O)C2=O)CCN(C)c1cc(OC)c(Nc2nccc(-c3cn(C)c4ccccc34)n2)cc1NC(=O)C=C (stereo unspecified) | 74 | 
8 | > 100 | > 100 | 0.309 | 1.02 | C#CCN(CCCCC(=O)Nc1cccc2c1CN(C1CCC(=O)NC1=O)C2=O)CCN(C)c1cc(OC)c(Nc2nccc(-c3cn(C)c4ccccc34)n2)cc1NC(=O)C=C (stereo unspecified) | 98 | 

Row | SMILES | IC50 (A549) [µM] | IC50 (NCI-H1299 [2]) [µM] | IC50 (HCC827) [µM] | IC50 (NCI-H1975 [3]) [µM] | Ratio IC50 [4] | other results
9 | C=CC(=O)Nc1cc(Nc2nccc(-c3cn(C)c4ccccc34)n2)c(OC)cc1N(C)CCN(C)C [OSIMERTINIB] | 0.445 | 3.24 | 0.00248 | […] | […] | viability at 0.1 µM (NCI-H1975 [8]): 90.1%; viability at 1 µM (NCI-H1975 [9]): 56.4%; Activity (NCI-H1975 [10]): […]; Activity (NCI-H1975 [11]): 1.7%; Activity (NCI-H1975 [12]): 3.83%; Activity (NCI-H1975 [13]): 34.7%; Activity (NCI-H1975 [14]): 6.89%; Activity (NCI-H1975 [15]): 7.27%; viability at 0.1 µM (NCI-H1299 [16]): 98.2%; viability at 1 µM (NCI-H1299 [17]): 97.3%; Activity (NCI-H1299 [18]): 0.08%; Activity (NCI-H1299 [19]): 0.075%; Activity (NCI-H1299 [20]): […]; Activity (NCI-H1299 [21]): 2.14%; Activity (NCI-H1299 [22]): 0.34%; Activity (NCI-H1299 [23]): 0.5%; fraction unbound at 4 h, 1 µM [24]: 0.0133
